Assay results from ChEMBL document CHEMBL4627367, “Structure-based design and synthesis of novel furan-diketopiperazine-type derivatives as potent microtubule inhibitors for treating cancer” (Bioorg Med Chem, 2020).
Calls of active or inactive are those of the source. The rule behind the calls is not given here.

What was measured:
[1] = test system: NCI-H460; experiment: Cytotoxicity against human NCI-H460 cells assessed as reduction in cell viability after 72 hrs by MTT assay; type: functional, cell-based; settings: NCI-H460, 72 h
[2] = test system: BXPC-3; experiment: Cytotoxicity against human BxPC3 cells assessed as reduction in cell viability incubated for 72 hrs by MTT assay; type: functional, cell-based; settings: BXPC-3, 72 h
[3] = test system: HT-29; experiment: Cytotoxicity against human HT-29 cells assessed as reduction in cell viability after 72 hrs by MTT assay; type: functional, cell-based; settings: HT-29, 72 h
[4] = target: T1, Tubulin (Homo sapiens) (UniProt P68371+Q9H4B7+P0DPH7+P68366+Q13509+Q71U36+P04350+Q3ZCM7+P07437+P68363+Q9BQE3+Q6PEY2+Q13885+Q9BVA1+Q9BUF5); experiment: Inhibition of tubulin in human NCI-H460 cells assessed as inhibition of microtubule polymerization at 2 nM after 24 hrs by immunofluorescence assay; type: cell-based
[5] = target: T1, Tubulin (Homo sapiens); experiment: Inhibition of tubulin in human NCI-H460 cells assessed as inhibition of microtubule polymerization at 10 nM after 24 hrs by immunofluorescence assay; type: cell-based

Row | SMILES | IC50 [1] | IC50 [2] | IC50 [3] | inhibition [4] | inhibition [5]
1 | O=c1[nH]/c(=C\c2nc3ccccc3[nH]2)c(=O)[nH]/c1=C\c1cccc(Oc2ccc(F)cc2)c1 | > 1000 nM |  |  |  | 
2 | O=c1[nH]/c(=C\C2CCCCC2)c(=O)[nH]/c1=C\c1cccc(Oc2ccc(F)cc2)c1 | > 1000 nM |  |  |  | 
3 | O=c1[nH]/c(=C\c2cccc(Oc3ccc(F)cc3)c2)c(=O)[nH]/c1=C\c1ccccc1 | 389 nM |  |  |  | 
4 | Cc1[nH]cnc1/C=c1\[nH]c(=O)/c(=C/c2cccc(C(=O)c3ccc(F)cc3)c2)[nH]c1=O | 15.9 nM |  |  |  | 
5 | Cc1ccc(/C=c2\[nH]c(=O)/c(=C/c3cccc(C(=O)c4ccc(F)cc4)c3)[nH]c2=O)o1 | 5.3 nM | 3.7 nM | 3.3 nM |  | 
6 | CC(C)(C)c1[nH]cnc1/C=c1\[nH]c(=O)/c(=C/c2cccc(C(=O)c3ccc(F)cc3)c2)[nH]c1=O |  | 0.6 nM | 0.6 nM | Active | 
7 | O=c1[nH]/c(=C\c2ccco2)c(=O)[nH]/c1=C\c1cccc(Oc2ccc(F)cc2)c1 | 154 nM |  |  |  | 
8 | O=c1[nH]/c(=C\c2ccc(Cl)o2)c(=O)[nH]/c1=C\c1cccc(Oc2ccc(F)cc2)c1 | 180 nM |  |  |  | 
9 | O=c1[nH]/c(=C\c2ccc([N+](=O)[O-])o2)c(=O)[nH]/c1=C\c1cccc(Oc2ccc(F)cc2)c1 | > 1000 nM |  |  |  | 
10 | O=c1[nH]/c(=C\c2c[nH]cn2)c(=O)[nH]/c1=C\c1cccc(Oc2ccc(F)cc2)c1 | 478 nM |  |  |  | 
11 | O=C(c1ccc(F)cc1)c1cccc(/C=c2\[nH]c(=O)/c(=C/c3nc[nH]c3C3CC3)[nH]c2=O)c1 | 2.8 nM | 1.4 nM | 1.4 nM |  | 
12 | CC(C)c1[nH]cnc1/C=c1\[nH]c(=O)/c(=C/c2cccc(Oc3ccc(F)cc3)c2)[nH]c1=O | 8.8 nM | 3.4 nM | 3.7 nM |  | Active
13 | CC(C)(C)c1[nH]cnc1/C=c1\[nH]c(=O)/c(=C/c2ccccc2)[nH]c1=O [PLINABULIN] |  | 5.8 nM | 6.6 nM |  | Active
14 | O=c1[nH]/c(=C\c2ccccn2)c(=O)[nH]/c1=C\c1cccc(Oc2ccc(F)cc2)c1 | 49.1 nM |  |  |  | 
15 | O=c1[nH]/c(=C\c2cccs2)c(=O)[nH]/c1=C\c1cccc(Oc2ccc(F)cc2)c1 | > 1000 nM |  |  |  | 
16 | CC(C)(C)c1[nH]cnc1/C=c1\[nH]c(=O)/c(=C/c2cccc(Oc3ccc(F)cc3)c2)[nH]c1=O |  | 3.2 nM | 2.1 nM |  | Active
17 | O=c1[nH]/c(=C\c2cc3ccccc3o2)c(=O)[nH]/c1=C\c1cccc(Oc2ccc(F)cc2)c1 | 347 nM |  |  |  | 
18 | COCc1ccc(/C=c2\[nH]c(=O)/c(=C/c3cccc(C(=O)c4ccc(F)cc4)c3)[nH]c2=O)o1 | 2.9 nM | 2 nM | 2.2 nM |  | Active
19 | CC(C)c1[nH]cnc1/C=c1\[nH]c(=O)/c(=C/c2cccc(C(=O)c3ccc(F)cc3)c2)[nH]c1=O | 3.2 nM | 0.6 nM | 0.8 nM |  | Active
20 | O=c1[nH]/c(=C\c2cccc(Oc3ccc(F)cc3)c2)c(=O)[nH]/c1=C\c1cccnc1 | > 1000 nM |  |  |  | 
21 | O=c1[nH]/c(=C\c2nc[nH]c2C2CC2)c(=O)[nH]/c1=C\c1cccc(Oc2ccc(F)cc2)c1 | 15.2 nM | 9.4 nM | 7.4 nM |  | 
22 | O=c1[nH]/c(=C\c2ccc(Br)o2)c(=O)[nH]/c1=C\c1cccc(Oc2ccc(F)cc2)c1 | 361 nM |  |  |  | 
23 | COCc1ccc(/C=c2\[nH]c(=O)/c(=C/c3cccc(Oc4ccc(F)cc4)c3)[nH]c2=O)o1 | 14 nM | 6.6 nM | 7 nM |  | Active
24 | O=c1[nH]/c(=C\c2ccc(CO)o2)c(=O)[nH]/c1=C\c1cccc(Oc2ccc(F)cc2)c1 | 41.5 nM |  |  |  | 
25 | O=c1[nH]/c(=C\c2ncc[nH]2)c(=O)[nH]/c1=C\c1cccc(Oc2ccc(F)cc2)c1 | > 1000 nM |  |  |  | 
26 | Cc1ccc(/C=c2\[nH]c(=O)/c(=C/c3cccc(Oc4ccc(F)cc4)c3)[nH]c2=O)o1 | 30 nM |  |  |  | 
27 | O=C(c1ccc(F)cc1)c1cccc(/C=c2\[nH]c(=O)/c(=C/c3c[nH]cn3)[nH]c2=O)c1 | 278 nM | 4.3 nM | 5.1 nM |  | 
28 | Cc1[nH]cnc1/C=c1\[nH]c(=O)/c(=C/c2cccc(Oc3ccc(F)cc3)c2)[nH]c1=O | 47.6 nM |  |  |  | 
